The text below walks through data of paper PMC4461206 (Acta Crystallographica Section D: Biological Crystallography, 2015).

The stoichiometry N is the number of molecules, sites or subunits per partner or assembly.

Series [1] concerns the target T1, AcdDPN7 (3-sulfinopropionyl-coenzyme A desulfinase) (Advenella mimigardefordensis, UniProt K4L7X3).
T1 construct: gene acd; His6-tagged, pET-23a::acdDPN7, E. coli BL21(DE3) pLysS; homotetramer 150-200 kDa, one FAD per subunit; residues 2-392 superimposed in the structure
Briefly: DTNB sulfite-release assay, […] nm. In kind it is biochemical. Conditions: 50 mM Tris-HCl pH 7.4, 30 C, 0.2 mM DTNB, 0.1 mM 3SP-CoA, with or without O2.

Series [2] addresses T1, AcdDPN7 (3-sulfinopropionyl-coenzyme A desulfinase). As to the kind of experiment: X-ray crystal structure, […] A. In kind it is binding. Conditions: co-crystallized and soaked with succinyl-CoA, which was hydrolysed; only CoA seen in the active site (monomers A, B, D, E, F), occupancy 0.43-0.59; pH 6.5.
For series [3] the target is unchanged. Briefly: X-ray crystal structure, […] A. The class given is binding. The conditions noted are these: noncovalent, one per subunit, site shared by two monomers; pH 6.5.
Series [4] deals with the molecule itself. As to the kind of experiment: crystal structure; apo enzyme at 1.89 Å (two monomers in the asymmetric unit) and complex with CoA at 2.30 Å (six monomers, three dimers); 0.1 M Bis-tris pH 6.5, PEG 3350; 100 K.
Series [5] concerns the molecule itself. As to the kind of experiment: SEC; wild-type Acd_(DPN7) and Acd_(DPN7_R84K) run side by side; conditions not told for this run.

Where a chain is given by its changes, count along the chain named.

In the case of `CC(C)(COP(=O)(O)OP(=O)(O)OC[C@H]1O[C@@H](n2cnc3c(N)ncnc32)[C@H](O)[C@@H]1OP(=O)(O)O)[C@@H](O)C(=O)NCCC(=O)NCCSC(=O)CCS(=O)O` [3SP-CoA], the “DTNB sulfite-release assay, 412 nm” value in series [1] is “AcdDPN7 showed no significant difference in reaction velocity in the presence or absence of O2”.

For `CC(C)(COP(=O)(O)OP(=O)(O)OC[C@H]1O[C@@H](n2cnc3c(N)ncnc32)[C@H](O)[C@@H]1OP(=O)(O)O)[C@@H](O)C(=O)NCCC(=O)NCCS` [CoA], the “X-ray crystal structure, 2.30 A” value in series [2] is “In the active sites of AcdDPN7 monomers A, B, D, E and F only the CoA group”.

In the case of `Cc1cc2nc3c(=O)[nH]c(=O)nc-3n(C[C@H](O)[C@H](O)[C@H](O)COP(=O)(O)OP(=O)(O)OC[C@H]3O[C@@H](n4cnc5c(N)ncnc54)[C@H](O)[C@@H]3O)c2cc1C` [FAD], the “X-ray crystal structure, 1.89 A” value in series [3] is “AcdDPN7 is a tetramer and each monomer has one FAD noncovalently bound to the polypeptide”.

B1: 3-Sulfinopropionyl-coenzyme A (3SP-CoA) desulfinase from Advenella mimigardefordensis DPN7T (enzyme)
chain: MYELTPEQRTLQTQARELAQSVFASTAVQTDLTEQYPWDNVAQLRDAGFMGMMLPTSVGGRGLSTLDTVIVIEEMAKACATMGRITVDSNLGAIGAITKYGSEEQIKLAADLVLAGDKPAICISEPNAGSAASEMTTRADKNGDHYILNGEKYWITGGGVSKLHLIFARVFDDGVEQGIGAFITVLDDHGPEGLKVGRRLYAMGVRGIPETHLEFHDLKIHKSMMITFPDGLKRGFAALMSAYNAQRVGAGAVALGIAQCAFEEGVAYLKRREQFGRPLAEFQGLQWMVADMSVQLEAARLMLRSAAVSGETFPDINKAAQAKIFAAETANKVTNDALQFFGSSGYGRHNPMERHVRDARMFTIAGGTAQILRTQVASKILDMKLPQTRDGYLKAAQNSKR
For B1, in series [4], the “stoichiometry N” value came out at 4.

B2: Acd_(DPN7_R84K) (enzyme)
chain: B1 chain with R84K
Take B2: the “stoichiometry N” value in series [5] came out at 4.
